ChEMBL document CHEMBL3124753, “Synthesis of 2-amino-3-cyano-4H-chromen-4-ylphosphonates and their anticancer properties” (2014)

Columns and labels:
Assay type in all cases: functional
KB [1] = experiment: Growth inhibition of human KB cells at 40 uM after 24 hrs by MTT assay relative to control; conditions: read-out: GI
KB [2] = experiment: Growth inhibition of human KB cells at 4 uM after 24 hrs by MTT assay relative to control; conditions: read-out: GI
KB [3] = experiment: Growth inhibition of human KB cells at 20 uM after 24 hrs by MTT assay relative to control; conditions: read-out: GI
KB [4] = experiment: Growth inhibition of human KB cells at 2 uM after 24 hrs by MTT assay relative to control; conditions: read-out: GI
A549 [5] = experiment: Growth inhibition of human A549 cells at 40 uM after 24 hrs by MTT assay relative to control; conditions: A549, 24 h, read-out: GI
A549 [6] = experiment: Growth inhibition of human A549 cells at 20 uM after 24 hrs by MTT assay relative to control; conditions: A549, 24 h, read-out: GI
A549 [7] = experiment: Growth inhibition of human A549 cells at 4 uM after 24 hrs by MTT assay relative to control; conditions: A549, 24 h, read-out: GI
A549 [8] = experiment: Growth inhibition of human A549 cells at 2 uM after 24 hrs by MTT assay relative to control; conditions: A549, 24 h, read-out: GI

Row | Structure (SMILES) | inhibition of growth at 40 µM (KB [1]) [%] | inhibition of growth at 4 µM (KB [2]) [%] | inhibition of growth at 20 µM (KB [3]) [%] | inhibition of growth at 2 µM (KB [4]) [%] | inhibition of growth at 40 µM (A549 [5]) [%] | inhibition of growth at 20 µM (A549 [6]) [%] | inhibition of growth at 4 µM (A549 [7]) [%] | inhibition of growth at 2 µM (A549 [8]) [%]
1 | CCOP(=O)(OCC)C1C(C#N)=C(N)Oc2ccccc21 (stereo unspecified) | 60.1 | 15.2 | 19.4 | 0.12 | 51 | 18.4 | 6.25 | 4.12
2 | CC(C)OP(=O)(OC(C)C)C1C(C#N)=C(N)Oc2ccccc21 (stereo unspecified) | 9.22 | 5.21 | 8.93 | 2.5 | 5.47 | 3.5 | 1.2 | 0.82
3 | CCCCOP(=O)(OCCCC)C1C(C#N)=C(N)Oc2ccccc21 (stereo unspecified) | 40.4 | 6.8 | 17.6 | 6.45 | 30.2 | 21.7 | 7.82 | 3.51
4 | CCOP(=O)(OCC)C1C(C#N)=C(N)Oc2ccc(Br)cc21 (stereo unspecified) | 81.8 | 10 | 12 | 6.8 | 60.8 | 20.3 | 9.05 | 0.52
5 | CC(C)OP(=O)(OC(C)C)C1C(C#N)=C(N)Oc2ccc(Br)cc21 (stereo unspecified) | 25.4 | 15 | 20.3 | 9.45 | 12.5 | 10.5 | 1.6 | 0.32
6 | CCCCOP(=O)(OCCCC)C1C(C#N)=C(N)Oc2ccc(Br)cc21 (stereo unspecified) | 45.2 | 10.3 | 11.5 | 9.5 | 26.7 | 17.5 | 8.94 | 0.52
7 | CCOP(=O)(OCC)C1C(C#N)=C(N)Oc2ccc([N+](=O)[O-])cc21 (stereo unspecified) | 8.29 | 6.08 | 6.18 | 4.5 | 3.9 | 3.1 | 2.89 | 0.33
8 | CC(C)OP(=O)(OC(C)C)C1C(C#N)=C(N)Oc2ccc([N+](=O)[O-])cc21 (stereo unspecified) | 23.3 | 8.5 | 16.2 | 6.07 | 26.9 | 16.8 | 6.25 | 2.5
9 | CCCCOP(=O)(OCCCC)C1C(C#N)=C(N)Oc2ccc([N+](=O)[O-])cc21 (stereo unspecified) | 33.8 | 6 | 14.5 | 0.58 | 15.8 | 7.94 | 8.21 | 6.3
10 | CCOP(=O)(OCC)C1C(C#N)=C(N)Oc2c1cccc2C(C)(C)C (stereo unspecified) | 27.3 | 7.4 | 11.5 | 5.65 | 14.9 | 12 | 4.34 | 3.72
11 | CC(C)OP(=O)(OC(C)C)C1C(C#N)=C(N)Oc2c1cccc2C(C)(C)C (stereo unspecified) | 20.6 | 6.5 | 12.5 | 5.5 | 14.9 | 13.9 | 8.23 | 3.1
12 | CCCCOP(=O)(OCCCC)C1C(C#N)=C(N)Oc2c1cccc2C(C)(C)C (stereo unspecified) | 19.8 | 13.9 | 14.5 | 11.2 | 13.7 | 11.2 | 10.5 | 9.5
